Results: ChEMBL document CHEMBL3132769, “Fragment growing to retain or alter the selectivity of anchored kinase hinge-binding fragments” (Medchemcomm, 2014)

Columns and labels:
[1] = target: T1, Aurora kinase C (Homo sapiens) (UniProt Q9UQB9); assay: Inhibition of human full length AurC expressed in baculovirus assessed as substrate phosphorylation using fluorescence-labelled peptides as substrate at 9 uM after 90 mins by microfluidic peptide phosphorylation assay
T1 sequence (whole entry): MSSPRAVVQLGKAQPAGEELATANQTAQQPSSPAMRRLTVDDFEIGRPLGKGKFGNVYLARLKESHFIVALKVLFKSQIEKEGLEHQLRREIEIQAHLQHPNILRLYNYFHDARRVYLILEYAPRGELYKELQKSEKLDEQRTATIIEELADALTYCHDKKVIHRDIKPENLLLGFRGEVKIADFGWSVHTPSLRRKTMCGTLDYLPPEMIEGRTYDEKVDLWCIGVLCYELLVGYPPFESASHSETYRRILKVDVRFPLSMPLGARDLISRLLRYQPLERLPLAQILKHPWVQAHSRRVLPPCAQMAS

[2] = target: T2, cGMP-dependent protein kinase 1 (Homo sapiens) (UniProt Q13976); assay: Inhibition of human full length PKG-1a expressed in baculovirus assessed as substrate phosphorylation using fluorescence-labelled peptides as substrate at 9 uM after 90 mins by microfluidic peptide phosphorylation assay
T2 sequence (whole entry): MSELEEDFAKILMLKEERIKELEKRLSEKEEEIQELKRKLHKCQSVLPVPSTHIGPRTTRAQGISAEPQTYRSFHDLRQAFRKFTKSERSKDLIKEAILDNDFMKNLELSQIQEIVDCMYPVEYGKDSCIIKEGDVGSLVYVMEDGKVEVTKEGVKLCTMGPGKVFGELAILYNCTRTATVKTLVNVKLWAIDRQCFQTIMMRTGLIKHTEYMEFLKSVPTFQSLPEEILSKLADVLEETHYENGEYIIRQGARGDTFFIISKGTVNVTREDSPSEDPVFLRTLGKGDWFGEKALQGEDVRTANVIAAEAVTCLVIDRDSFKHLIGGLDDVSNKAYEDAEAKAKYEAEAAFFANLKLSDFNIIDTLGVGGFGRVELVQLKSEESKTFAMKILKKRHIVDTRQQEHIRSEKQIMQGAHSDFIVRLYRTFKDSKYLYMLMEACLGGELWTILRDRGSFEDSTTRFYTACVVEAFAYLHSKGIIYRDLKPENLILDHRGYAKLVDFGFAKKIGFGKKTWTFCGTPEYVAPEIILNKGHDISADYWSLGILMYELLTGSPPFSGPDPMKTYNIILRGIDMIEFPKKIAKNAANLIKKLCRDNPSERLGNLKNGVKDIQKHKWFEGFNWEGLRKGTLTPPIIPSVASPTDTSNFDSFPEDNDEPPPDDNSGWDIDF

[3] = target: Mitogen-activated protein kinase 1 (Homo sapiens) (UniProt P28482); assay: Inhibition of human full length ERK2 expressed in Escherichia coli cell assessed as substrate phosphorylation using fluorescence-labelled peptides as substrate at 95 uM after 90 mins by microfluidic peptide phosphorylation assay
Sequence of Mitogen-activated protein kinase 1 (Homo sapiens) (P28482 whole entry): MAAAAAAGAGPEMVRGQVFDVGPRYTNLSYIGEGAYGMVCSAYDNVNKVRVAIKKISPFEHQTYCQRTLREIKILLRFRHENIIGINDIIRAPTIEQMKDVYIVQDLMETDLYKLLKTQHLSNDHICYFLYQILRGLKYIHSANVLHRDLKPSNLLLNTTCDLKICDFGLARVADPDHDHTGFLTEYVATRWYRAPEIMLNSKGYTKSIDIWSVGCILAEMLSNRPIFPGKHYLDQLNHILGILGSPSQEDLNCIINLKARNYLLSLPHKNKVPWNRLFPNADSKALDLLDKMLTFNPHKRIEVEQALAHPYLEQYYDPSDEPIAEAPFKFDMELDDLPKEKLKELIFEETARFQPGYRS

[4] = target: MAP/microtubule affinity-regulating kinase 3 (Homo sapiens) (UniProt P27448); assay: Inhibition of human full length c-TAK1 expressed in Escherichia coli cell assessed as substrate phosphorylation using fluorescence-labelled peptides as substrate at 95 uM after 90 mins by microfluidic peptide phosphorylation assay
Sequence of MAP/microtubule affinity-regulating kinase 3 (Homo sapiens) (P27448 whole entry, looked up, the tested form may be a part): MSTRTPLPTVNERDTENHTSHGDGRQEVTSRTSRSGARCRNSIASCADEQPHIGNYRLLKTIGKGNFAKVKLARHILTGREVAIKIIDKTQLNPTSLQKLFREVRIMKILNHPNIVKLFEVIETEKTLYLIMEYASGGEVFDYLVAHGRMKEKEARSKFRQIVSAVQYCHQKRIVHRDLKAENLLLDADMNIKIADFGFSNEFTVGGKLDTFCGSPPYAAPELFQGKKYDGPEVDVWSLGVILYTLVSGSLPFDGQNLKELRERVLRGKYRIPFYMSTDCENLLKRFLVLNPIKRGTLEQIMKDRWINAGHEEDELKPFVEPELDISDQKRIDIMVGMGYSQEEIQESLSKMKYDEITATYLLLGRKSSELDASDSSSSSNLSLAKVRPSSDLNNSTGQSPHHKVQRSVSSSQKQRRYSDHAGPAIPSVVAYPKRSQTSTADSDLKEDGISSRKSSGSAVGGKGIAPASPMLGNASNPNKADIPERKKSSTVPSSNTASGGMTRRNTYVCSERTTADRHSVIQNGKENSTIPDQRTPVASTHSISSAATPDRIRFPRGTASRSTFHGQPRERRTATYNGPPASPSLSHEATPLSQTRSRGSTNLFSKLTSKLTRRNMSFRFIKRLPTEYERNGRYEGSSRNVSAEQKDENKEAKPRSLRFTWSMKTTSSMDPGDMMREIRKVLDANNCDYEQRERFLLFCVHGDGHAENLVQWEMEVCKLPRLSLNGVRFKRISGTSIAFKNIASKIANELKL

[5] = target: Receptor-type tyrosine-protein kinase FLT3 (Homo sapiens) (UniProt P36888); assay: Inhibition of human FLT3 catalytic domain expressed in baculovirus assessed as substrate phosphorylation using fluorescence-labelled peptides as substrate at 70 uM after 90 mins by microfluidic peptide phosphorylation assay
Sequence of Receptor-type tyrosine-protein kinase FLT3 (Homo sapiens) (P36888 whole entry, the tested form may be a part): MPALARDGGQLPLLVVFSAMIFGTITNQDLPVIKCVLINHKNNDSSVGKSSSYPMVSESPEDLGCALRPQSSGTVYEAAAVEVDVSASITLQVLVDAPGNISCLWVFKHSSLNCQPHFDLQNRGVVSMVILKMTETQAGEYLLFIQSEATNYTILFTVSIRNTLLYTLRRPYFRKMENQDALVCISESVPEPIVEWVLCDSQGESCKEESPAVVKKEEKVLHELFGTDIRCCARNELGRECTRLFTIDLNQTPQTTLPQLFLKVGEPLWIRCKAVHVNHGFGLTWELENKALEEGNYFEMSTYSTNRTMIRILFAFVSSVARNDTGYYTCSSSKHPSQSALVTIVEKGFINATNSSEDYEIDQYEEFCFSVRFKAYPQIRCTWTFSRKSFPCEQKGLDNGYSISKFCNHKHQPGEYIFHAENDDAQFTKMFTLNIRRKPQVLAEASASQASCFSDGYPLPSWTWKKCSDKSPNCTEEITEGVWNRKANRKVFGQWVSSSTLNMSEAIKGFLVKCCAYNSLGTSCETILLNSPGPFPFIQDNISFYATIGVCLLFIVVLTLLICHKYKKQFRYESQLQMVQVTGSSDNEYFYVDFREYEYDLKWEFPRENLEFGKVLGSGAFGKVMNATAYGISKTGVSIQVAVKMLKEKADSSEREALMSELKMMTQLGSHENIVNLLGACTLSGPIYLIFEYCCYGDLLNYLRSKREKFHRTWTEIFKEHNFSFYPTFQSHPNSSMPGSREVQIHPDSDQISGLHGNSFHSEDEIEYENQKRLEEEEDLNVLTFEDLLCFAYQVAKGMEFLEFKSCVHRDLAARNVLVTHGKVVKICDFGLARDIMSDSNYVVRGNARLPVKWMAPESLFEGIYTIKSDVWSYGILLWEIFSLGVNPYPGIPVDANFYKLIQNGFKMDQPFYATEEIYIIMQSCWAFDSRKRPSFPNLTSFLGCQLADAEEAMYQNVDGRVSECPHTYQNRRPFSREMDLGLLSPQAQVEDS

[6] = target: T3, Serine/threonine-protein kinase Chk1 (Homo sapiens) (UniProt O14757); assay: Inhibition of human full length CHK1 expressed in baculovirus assessed as substrate phosphorylation using fluorescence-labelled peptides as substrate at 0.2 uM after 90 mins by microfluidic peptide phosphorylation assay
T3 sequence (whole entry): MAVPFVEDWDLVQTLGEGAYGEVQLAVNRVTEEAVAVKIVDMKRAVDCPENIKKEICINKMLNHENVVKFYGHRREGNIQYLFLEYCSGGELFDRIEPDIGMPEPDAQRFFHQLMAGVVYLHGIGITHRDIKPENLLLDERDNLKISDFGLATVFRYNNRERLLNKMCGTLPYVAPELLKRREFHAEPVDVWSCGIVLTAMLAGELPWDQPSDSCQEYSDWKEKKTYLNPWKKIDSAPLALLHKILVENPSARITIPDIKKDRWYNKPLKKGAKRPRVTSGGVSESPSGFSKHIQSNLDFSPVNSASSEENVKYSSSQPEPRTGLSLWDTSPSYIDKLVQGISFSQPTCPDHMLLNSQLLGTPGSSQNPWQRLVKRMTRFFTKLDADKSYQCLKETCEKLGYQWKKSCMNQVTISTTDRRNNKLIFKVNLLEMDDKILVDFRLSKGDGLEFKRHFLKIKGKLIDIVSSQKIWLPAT

[7] = target: Protein kinase C gamma type (Homo sapiens) (UniProt P05129); assay: Inhibition of human truncated PKC gamma expressed in baculovirus assessed as substrate phosphorylation using fluorescence-labelled peptides as substrate at 8 uM after 90 mins by microfluidic peptide phosphorylation assay
[8] = target: T4, Inhibitor of nuclear factor kappa-B kinase subunit beta (Homo sapiens) (UniProt O14920); assay: Inhibition of human full length IKK beta expressed in baculovirus assessed as substrate phosphorylation using fluorescence-labelled peptides as substrate at 1000 uM after 90 mins by microfluidic peptide phosphorylation assay
T4 sequence (whole entry): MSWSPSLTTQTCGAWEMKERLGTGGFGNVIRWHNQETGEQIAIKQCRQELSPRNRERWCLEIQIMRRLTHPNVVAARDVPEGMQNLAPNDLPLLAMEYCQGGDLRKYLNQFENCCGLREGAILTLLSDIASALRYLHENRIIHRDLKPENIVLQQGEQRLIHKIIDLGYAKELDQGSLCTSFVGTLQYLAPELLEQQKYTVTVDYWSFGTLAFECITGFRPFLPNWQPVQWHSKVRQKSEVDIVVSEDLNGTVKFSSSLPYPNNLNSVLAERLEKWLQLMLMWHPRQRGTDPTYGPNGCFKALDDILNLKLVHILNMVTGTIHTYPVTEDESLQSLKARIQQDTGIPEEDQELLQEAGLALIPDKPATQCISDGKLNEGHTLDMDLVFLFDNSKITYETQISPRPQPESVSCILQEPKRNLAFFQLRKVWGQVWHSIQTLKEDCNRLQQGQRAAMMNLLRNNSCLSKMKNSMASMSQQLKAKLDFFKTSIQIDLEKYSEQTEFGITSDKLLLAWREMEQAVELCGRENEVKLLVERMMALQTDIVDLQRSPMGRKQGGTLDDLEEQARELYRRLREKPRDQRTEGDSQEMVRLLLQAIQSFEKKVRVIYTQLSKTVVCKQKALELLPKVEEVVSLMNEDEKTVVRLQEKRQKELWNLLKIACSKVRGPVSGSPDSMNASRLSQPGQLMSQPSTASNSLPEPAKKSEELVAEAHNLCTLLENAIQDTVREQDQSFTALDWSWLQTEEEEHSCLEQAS

SMILES: NCC1CN(c2ncnc3[nH]c4cnccc4c23)CCO1 (stereo not drawn)
- inhibition [1]: 11.5%
- inhibition [2]: 15.5%

SMILES: NCCc1ccc(-c2ncnc3[nH]cnc23)cc1
- inhibition [3]: 55.5%
- inhibition [4]: 18%

SMILES: CNCc1ccc(-c2ncnc3[nH]cnc23)cc1
- inhibition [5]: 36%

SMILES: Clc1ccc(C2(c3ccc(-c4ncnc5[nH]cnc45)cc3)CCNCC2)cc1
- inhibition [6]: 46%

SMILES: NCC1CCN(c2ncnc3[nH]ccc23)CC1
- inhibition [7]: 86%

SMILES: c1cnc2[nH]ccc2c1
- inhibition [8]: 95.5%
